This test addresses T1, amylase derived from human saliva (human S type α-amylase) (Homo sapiens, UniProt P0DUB6).
T1 sequence (P0DUB6 16-511): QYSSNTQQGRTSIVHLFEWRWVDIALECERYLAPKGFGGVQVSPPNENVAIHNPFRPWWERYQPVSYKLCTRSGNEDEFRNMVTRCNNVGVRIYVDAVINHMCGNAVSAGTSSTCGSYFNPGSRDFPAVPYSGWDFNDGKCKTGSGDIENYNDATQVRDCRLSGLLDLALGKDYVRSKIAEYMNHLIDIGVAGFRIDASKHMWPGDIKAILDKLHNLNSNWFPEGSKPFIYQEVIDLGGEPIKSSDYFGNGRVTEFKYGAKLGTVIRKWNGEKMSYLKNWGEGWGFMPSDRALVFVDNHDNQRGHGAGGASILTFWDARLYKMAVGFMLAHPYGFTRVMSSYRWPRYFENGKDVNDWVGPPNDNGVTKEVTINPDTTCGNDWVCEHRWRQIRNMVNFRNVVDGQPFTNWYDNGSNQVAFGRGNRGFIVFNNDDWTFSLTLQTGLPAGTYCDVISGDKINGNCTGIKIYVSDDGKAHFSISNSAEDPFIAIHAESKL
The test is described as follows: Km value, S type α-amylase. As to conditions: pH 7.0, 37° C., Lineweaver-Burk. Type of test: biochemical. The procedure:
Km values, hydrolysis rate, water solubility and the patterns of action in the hydrolysis of the present substrates 2-chloro-4-nitrophenyl 5^5 -eno-4^5 -O-mesyl-β-D-maltopentaoside (EMG5CNP) and 2-chloro-4-nitrophenyl 6^5 -azido-6^5 -deoxy- β-D-maltopentaoside (ADG5CNP) obtained in Example were examined in accordance with the following methods.
Substrate solutions were prepared by dissolving in a 50 mM phosphate buffer (pH=7.0) containing 40 mM NaCl and 2 mM MgCl2 a substrate to 0.16, 0.32, 0.48, 0.64, 0.80 and 0.96 mM, respectively.
The Km value of each substrate solution was obtained by measuring the hydrolysis rate of the substrate in accordance with the same procedure as in the measurement of hydrolysis rate described below and roughly calculating the Lineweaver-Burk's reciprocal plot (see "Tanpaku-Kohso no Jikken-hou", ed. Takeichi Horio & Jinpei Yamashita, Nanko-do, 1981).
Each substrate was dissolved in a 50 mM phosphate buffer (pH=7.0) containing 40 mM NaCl and 2 mM MgCl2 to make three substrate solutions in a concentration of 0.8-1.6 times and three substrate solutions in a concentration of 1.6-3.2 times per the roughly calculated Km value in the aforementioned paragraph (ii).
The Km value was calculated in accordance with the same procedure as in the aforementioned paragraph (ii).
S: amylase derived from human saliva.

Each structure is given as a SMILES string.

Take `[N-]=[N+]=NC[C@H]1O[C@H](O[C@H]2[C@H](O)[C@@H](O)[C@@H](O[C@H]3[C@H](O)[C@@H](O)[C@@H](O[C@H]4[C@H](O)[C@@H](O)[C@@H](O[C@H]5[C@H](O)[C@@H](O)[C@H](Oc6ccc([N+](=O)[O-])cc6Cl)O[C@@H]5CO)O[C@@H]4CO)O[C@@H]3CO)O[C@@H]2CO)[C@H](O)[C@@H](O)[C@@H]1O` [ADG5CNP, 2-chloro-4-nitrophenyl 6^5-azido-6^5-deoxy-β-D-maltopentaoside]: the Michaelis constant (Km) – broadly, the concentration of substrate that gives half-maximal velocity – stood at 260 µM.

Turning to `C=C1O[C@H](O[C@H]2[C@H](O)[C@@H](O)[C@@H](O[C@H]3[C@H](O)[C@@H](O)[C@@H](O[C@H]4[C@H](O)[C@@H](O)[C@@H](O[C@H]5[C@H](O)[C@@H](O)[C@H](Oc6ccc([N+](=O)[O-])cc6Cl)O[C@@H]5CO)O[C@@H]4CO)O[C@@H]3CO)O[C@@H]2CO)[C@H](O)[C@@H](O)[C@@H]1OS(C)(=O)=O` [EMG5CNP, 2-chloro-4-nitrophenyl 5^5-eno-4^5 -O-mesyl-β-D-maltopentaoside], the Km was found to be 140 µM.

The record behind these values is patent publication US5302514A, “Maltooligoside derivative, reagent for determining α-amylase activity containing the same as effective ingredient and a process for determining the α-amylase activity using same” (Kikkoman Corporation, priority 1991, dated 1994).
